Data as given in patent US9326945B2, “Apixaban formulations” (Bristol-Myers Squibb Company, priority 2010, dated 2016).
≈ marks a conversion by molar mass, not a printed value.

Key:
[1] = Contact angle of apixaban drug substance with water; type: physicochemical
[2] = Aqueous solubility of apixaban; type: physicochemical

## COc1ccc(-n2nc(C(N)=O)c3c2C(=O)N(c2ccc(N4CCCCC4=O)cc2)CC3)cc1 [apixaban, 4,5,6,7-tetrahydro-1-(4-methoxyphenyl)-7-oxo-6-[4-(2-oxo-1-piperidinyl)phenyl]-1H-pyrazolo[3,4-c]pyridine-3-carboxamide]
[1]
  contact angle: 54 °
[2]; 10 mg apixaban dose
  dose/solubility ratio: 250 mL
[2]; aqueous medium, at all physiological pH
  solubility: 40 µg/mL (≈ 87.1 µM)
